The text below walks through data of US8053436B1, “9-(piperazinylalkyl) carbazoles as bax-modulators” (Merck Serono SA, priority 1999, dated 2011).

For data set [1], the system named is Sympathetic neurons from superior cervical ganglia (SCG) of newborn rats. Briefly: Sympathetic neuron culture and survival assay (neuronal survival). The class given is cell-based. The following applies: Compounds were tested at 10 μM; rat SCG neurons, NGF deprivation (anti NGF antibody), MTT 24 hours after cell death induction. An excerpt: (§1) The above set out 2 in vitro assays c) and d) involving the determination of mitochondrial cytochrome c release are based on immunochemical methods using the Western blot analysis. Alternatively, said quantitative cytochrome c determinations could be performed by using spectrophotometric means: • I. by recording the difference between reduced and oxidised cytochrome c by dual wavelength double beam spectrophotometry; • by measuring the rather intensive γ or Soret peak in the spectrum of cytochrome c (ε=100 mM^−1 cm^−1) is used for rapid and quantitative determination of the release of cytochrome c from isolated mitochondria.
Cell death is induced at day 4 after plating by exposing the culture to medium containing 10 µg/ml of anti NGF antibody (Boehringer Mannheim Corp., Indianapolis, Ind.) and no NGF or arabinosine, in the presence or absence of piperazine derivatives of carbazole inhibitors according to formula I. 24 hours after cell death induction, determination of cell viability is performed by incubation of the culture for 1 hour, at 37° C. in 0.5 mg/ml of 3-(4,5-dimethyl-thiazol-2-yl)2,5diphenyl tetrazolium bromide (MTT). After incubation in MTT, cells are re-suspended in DMSO, transferred to a 96 MTT plate and cell viability is evaluated by measuring optical density at 590 nm.

In data set [2] the target is T1, recombinant Bax (Human Bax-α), mitochondria from mouse liver (Homo sapiens, UniProt Q07812).
T1 construct: Human Bax-α lacking 20 amino acids at the COOH-terminus; GST (cleaved yes); His-tag (alternative construct); made in house; host or cells: Escherichia coli
Briefly: In vitro assay for cytochrome c release (mitochondria cytochrome c release triggered by Bax activation). The note with it: Compounds were tested at 5 μM, 200 nM recombinant Bax. It counts as biochemical.
Excerpt: The cytochrome c bands are scanned and quantified using a Bio-Rad (GS-700 Imaging Densitometer).
as §1

Data set [3] deals with T2, Bid-induced Bax activation (mitochondria isolated from HeLa cells) (Homo sapiens, UniProt Q07812).
T2 construct: endogenous in cells; host or cells: mitochondria isolated from HeLa cells
Kind of data set: Mitochondria cytochrome c release triggered by Bid-induced Bax activation. It counts as biochemical. The following applies: Compounds were tested at 10 μM, 10 nM recombinant Bid. How it is done: d) Effect of Compounds according to formula I onto the Release of Cytochrome c Triggered by Bid-Induced Bax Activation (Mitochondria Cytochrome c Release Triggered by Bid-Induced Bax Activation)
Mitochondria isolated from HeLa cells are incubated for 15 min at 30° C. in […] of KCl buffer in the presence or absence of 10 nM recombinant Bid. The various compounds (10 μM) are pre-incubated for 5 min prior to addition of Bid. Following incubation, mitochondria were centrifuged for 5 min at 13000 g at 4° C. and the supernatant is collected for cytochrome c analysis. Cytochrome c is detected by Western blotting. The cytochrome c bands are scanned and quantified using a Bio-Rad (GS-700 Imaging Densitometer).
as §1

Structures can show the parent of a compound that is named as a salt.

T2 sequence (Q07812 whole entry): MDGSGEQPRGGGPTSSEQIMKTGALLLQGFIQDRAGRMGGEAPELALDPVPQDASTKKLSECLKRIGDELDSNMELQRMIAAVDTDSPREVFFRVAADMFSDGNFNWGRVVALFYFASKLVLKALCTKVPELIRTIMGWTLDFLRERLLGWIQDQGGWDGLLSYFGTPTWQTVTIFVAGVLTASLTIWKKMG
T1 sequence (Q07812 1-172 limits assumed): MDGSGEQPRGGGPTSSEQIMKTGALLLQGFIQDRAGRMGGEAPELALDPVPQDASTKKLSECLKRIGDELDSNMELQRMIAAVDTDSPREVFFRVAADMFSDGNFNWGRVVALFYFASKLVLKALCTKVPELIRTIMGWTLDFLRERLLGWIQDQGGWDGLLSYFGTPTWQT

The term melting point denotes the temperature, or range, at which the solid turns liquid. `O=C(CN1CCN(CC2CCCCC2)CC1)Cn1c2ccc(Br)cc2c2cc(Br)ccc21` (as salt: hydrochloride) [Example 109, (±)-1-[4-(cyclohexylmethyl)piperazin-1-yl]-3-(3,6-dibromocarbazol-9-yl)acetone]: the melting point was 261 °C (dec.). On the same count and under the same terms, in the case of `O=C(CN1CCN(CC2CCCCC2)CC1)Cn1c2ccccc2c2cc(-c3ccccc3)ccc21` (as salt: hydrochloride) [Example 111, (±)-1-[4-(Cyclohexylmethyl)piperazin-1-yl]-3-(3-phenylcarbazol-9-yl)acetone] it was 231 °C (dec.); in that of `OC(CN1CCN(Cc2ccc(F)cc2)CC1)Cn1c2ccccc2c2ccccc21` (racemic) (as salt: HCl) [Example 22, (±)-1-Carbazol-9-yl-3-[4-(4-fluoro-benzyl)-piperazin-1-yl]-propan-2-ol], 251 °C (dec.); in that of `OC(CN1CCN(Cc2ccc(F)cc2)CC1)Cn1c2ccccc2c2cc(-c3ccccc3)ccc21` (racemic) (as salt: HCl) [Example 24, (±)-1-[4-(4-Fluoro-benzyl)-piperazin-1-yl]-3-(3-phenyl-carbazol-9-yl)-propan-2-ol], 188 °C. The same measure, in the same setting: next, `N#Cc1ccc2c(c1)c1cc(C#N)ccc1n2CC(O)CN1CCNCC1` (racemic) (as salt: HCl) [Example 25, (±)-9-(2-Hydroxy-3-piperazin-1-yl-propyl)-carbazole-3,6-dicarbonitrile]: 295 °C (dec.). On the same count and under the same terms, in the case of `OC(CN1CCN(CCCc2ccccc2)CC1)Cn1c2ccccc2c2ccccc21` (racemic) (as salt: HCl) [Example 31, (±)-1-Carbazol-9-yl-3-[4-(3-phenyl-propyl)-piperazin-1-yl]-propan-2-ol] it was 265 °C; in that of `O=C(c1ccccc1)N1CCN(CC(O)Cn2c3ccccc3c3ccccc32)CC1` (racemic) (as salt: HCl) [Example 36, (±)-1-[4-(3-Carbazol-9-yl-2-hydroxy-propyl)-piperazin-1-yl]-1-phenyl-methanone], 153 °C. For `Cc1ccc2c3ccccc3n(CC(O)CN3CCN(Cc4ccccc4)CC3)c2c1` (racemic) (as salt: hydrochloride) [Example 1, (±)-1-(4-Benzyl-piperazin-1-yl)-3-(2-methyl-carbazol-9-yl)-propan-2-ol], the melting point is 239 °C (dec.).

Consider `OC(CN1CCN(CC2CCCCC2)CC1)Cn1c2ccccc2c2cc(-c3ccccc3)ccc21` (racemic) (as salt: hydrochloride) [Example 66, (±)-1-(4-Cyclohexylmethylpiperazin-1-yl)-3-(3-phenylcarbazol-9-yl)-propan-2-ol], for which the melting point is 265 to 270 °C (dec.). Still for that read-out and setting: in the case of `O=S(=O)(Cc1ccccc1)N1CCN(CC(O)Cn2c3ccc(Br)cc3c3cc(Br)ccc32)CC1` (racemic) (as salt: hydrochloride) [Example 71, (±)-1-[4-(Benzylsulfonyl)piperazin-1-yl]-3-(3,6-dibromo-carbazol-9yl)propan-2-ol] it was 253 °C (dec.); in that of `OC(CN1CCN(Cc2ccc(Cl)c(Cl)c2)CC1)Cn1c2ccc(Br)cc2c2cc(Br)ccc21` (racemic) (as salt: hydrochloride) [Example 72, (±)-1-(3,6-Dibromo-carbazol-9-yl)-3-[4-(3,4-dichlorobenzyl)piperazin-1-yl]propan-2-ol], 287 °C (dec.).

For the compound `OC(CN1CCN(CC2CCCCC2)CC1)Cn1c2ccc(Cl)cc2c2cc(Cl)ccc21` (racemic) (as salt: hydrochloride) [Example 76, (±)-1-[4-(Cyclohexylmethyl)piperazin-1-yl]-3-(3,6-dichloro-carbazol-9-yl)propan-2-ol], the melting point was 302 °C (dec.).

Take `OC(CN1CCN(Cc2ccnc3ccccc23)CC1)Cn1c2ccccc2c2cc(Br)ccc21` (racemic) (as salt: hydrochloride) [Example 106, (±)-1-(3-Bromocarbazol-9-yl)-3-[4-(quinolin-4-ylmethyl)piperazin-1-yl]propan-2-ol]: the melting point was 192 °C (dec.). The same measure, in the same setting: next, `OC(CN1CCN(Cc2ccccc2)CC1)Cn1c2ccc(Br)cc2c2cc(Br)ccc21` (racemic) [Example 6, (±)-1-(4-Benzyl-piperazin-1-yl)-3-(3,6-dibromo-carbazol-9-yl)-propan-2-ol]: 70 to 75 °C. One may read the inhibition as the percentage by which the read-out fell short of the control. For `OC(CN1CCN(Cc2ccc(F)cc2)CC1)Cn1c2ccc(Br)cc2c2cc(Br)ccc21` (racemic) [Example 23, (±)-1-(3,6-Dibromo-carbazol-9-yl)-3-[4-(4-fluoro-benzyl)-piperazin-1-yl]-propan-2-ol], the “Neuronal Survival (%)” value in data set [1] worked out at 45%. Besides, the inhibition at 5 µM in data set [2] stood at 51%. In addition, the inhibition at 10 µM in data set [3] was 68%.

Consider `OC(CN1CCNCC1)Cn1c2ccccc2c2cc(-c3ccccc3)ccc21` (racemic) [Example 27, (±)-1-(3-Phenylcarbazol-9-yl)-3-piperazin-1-yl-propan-2-ol], for which the “Neuronal Survival (%)” value in data set [1] is on record as 40%. Also, in data set [2], the inhibition at 5 µM came to 40%. Further, in data set [3], the inhibition at 10 µM came out at 88%.

Regarding `OC(CN1CCN(CC2CCCCC2)CC1)Cn1c2ccc(Br)cc2c2cc(Br)ccc21` (racemic) [Example 45, (±)−1-4-Cyclohexylmethylpiperazin-1-yl)-3-(3,6-dibromo-carbazol-9-yl)-propan-2-ol], in data set [1], the “Neuronal Survival (%)” value is given as 60%. In data set [3], the “Mitochondria Cytochrome c Release Triggered by Bid-Induced Bax Activation (% Inhibition)” value worked out at 37%. On to `OC(CN1CCN(Cc2ccsc2)CC1)Cn1c2ccc(Br)cc2c2cc(Br)ccc21` (racemic) [Example 60, (±)-1-(3,6-Dibromocarbazol-9-yl)-3-[4-(thien-3-ylmethyl)piperazin-1-yl]propan-2-ol], for which, in data set [1], the “Neuronal Survival (%)” value was 40%. Moreover, the inhibition at 10 µM in data set [3] amounted to 60%. In the same order, the values of `COc1ccc(CN2CCN(CC(O)Cn3c4ccc(Br)cc4c4cc(Br)ccc43)CC2)cc1` (racemic) [Example 62, (±)-1-(3,6-Dibromocarbazol-9-yl)-3-[4-(4-methoxybenzyl)piperazin-1-yl]propan-2-ol] are 30% and 99%. As to `OC(CN1CCN(CCN2CCOCC2)CC1)Cn1c2ccc(Br)cc2c2cc(Br)ccc21` (racemic) [Example 73, (±)-1-(3,6-Dibromo-carbazol-9-yl)-3-[4-(2-morpholin-4-ethyl)piperazin-1-yl]propan-2-ol], in data set [1], the “Neuronal Survival (%)” value is recorded as 30%. Besides, the “Mitochondria Cytochrome c Release Triggered by Bid-Induced Bax Activation (% Inhibition)” value in data set [3] came out at 74%.

On to `FC(F)(CN1CCNCC1)Cn1c2ccc(Br)cc2c2cc(Br)ccc21` (racemic) [Example 80, (±)-3,6-Dibromo-9-(2,2-difluoro-3-piperazin-1-ylpropyl)-carbazole], for which the “Neuronal Survival (%)” value in data set [1] was found to be 20%. For the same compound, the inhibition at 10 µM in data set [3] came to 73%. As for `OC(CN1CCN(CCN2CCOCC2)CC1)Cn1c2ccc(Cl)cc2c2cc(Cl)ccc21` (racemic) [Example 110, (±)-1-(3,6-Dichlorocarbazol-9-yl)-3-[4-(2-morpholin-4-ethyl)piperazin-1-yl]propan-2-ol], the “Neuronal Survival (%)” value in data set [1] was 30%. For the same compound, the “Mitochondria Cytochrome c Release Triggered by Bid-Induced Bax Activation (% Inhibition)” value in data set [3] was 87%.
